# From ChEMBL document CHEMBL3102738, “Synthesis and biological evaluation of nitric oxide-donating analogues of sulindac for prostate cancer treatment” (Bioorg Med Chem, 2014)
# Legend:
# Assay type in all cases: functional
# PC-3 [1] = assay: Cytotoxicity against human PC3 cells assessed as cell viability at 50 uM after 72 hrs by crystal violet method (reference value: 95.69 +/- 7.66%); settings: PC-3, 72 h, read-out: Activity
# PC-3 [2] = assay: Cytotoxicity against human PC3 cells assessed as cell viability at 50 uM after 48 hrs by crystal violet method (reference value: 100.87 +/- 4.87%); settings: PC-3, 48 h, read-out: Activity
# PC-3 [3] = assay: Cytotoxicity against human PC3 cells assessed as cell viability at 50 uM after 24 hrs by crystal violet method (reference value: 99.09 +/- 9.87%); settings: PC-3, 24 h, read-out: Activity
structure (smiles),measurement,setting,value
CSc1ccc(/C=C2/C(C)=C(CC(=O)OCCCCCCOc3no[n+]([O-])c3S(=O)(=O)c3ccccc3)c3cc(F)ccc32)cc1,viability at 50 µM,PC-3 [1],29.2%
same,viability at 50 µM,PC-3 [2],41.7%
same,viability at 50 µM,PC-3 [3],57.2%
CSc1ccc(/C=C2/C(C)=C(CC(=O)OC(CO[N+](=O)[O-])CO[N+](=O)[O-])c3cc(F)ccc32)cc1,viability at 50 µM,PC-3 [1],93.5%
same,viability at 50 µM,PC-3 [2],92.3%
same,viability at 50 µM,PC-3 [3],91.2%
CC1=C(CC(=O)OCC#CCOc2no[n+]([O-])c2S(=O)(=O)c2ccccc2)c2cc(F)ccc2/C1=C\c1ccc([S+](C)[O-])cc1 (configuration not stated),viability at 50 µM,PC-3 [1],0%
same,viability at 50 µM,PC-3 [2],0%
same,viability at 50 µM,PC-3 [3],0%
CC1=C(CC(=O)OC/C=C\COc2no[n+]([O-])c2S(=O)(=O)c2ccccc2)c2cc(F)ccc2/C1=C\c1ccc(S(C)(=O)=O)cc1,viability at 50 µM,PC-3 [1],0%
same,viability at 50 µM,PC-3 [2],0%
same,viability at 50 µM,PC-3 [3],0%
CC1=C(CC(=O)OCCCOc2no[n+]([O-])c2S(=O)(=O)c2ccccc2)c2cc(F)ccc2/C1=C\c1ccc([S+](C)[O-])cc1 (configuration not stated),viability at 50 µM,PC-3 [1],0%
same,viability at 50 µM,PC-3 [2],0%
same,viability at 50 µM,PC-3 [3],0%
CC1=C(CC(=O)OCCCOc2no[n+]([O-])c2S(=O)(=O)c2ccccc2)c2cc(F)ccc2/C1=C\c1ccc(S(C)(=O)=O)cc1,viability at 50 µM,PC-3 [1],0%
same,viability at 50 µM,PC-3 [2],0%
same,viability at 50 µM,PC-3 [3],0%
CC1=C(CC(=O)O)c2cc(F)ccc2/C1=C\c1ccc(S(C)(=O)=O)cc1 [EXISULIND],viability at 50 µM,PC-3 [1],83.5%
same,viability at 50 µM,PC-3 [2],91%
same,viability at 50 µM,PC-3 [3],87.8%
CC1=C(CC(=O)OCCCCOc2no[n+]([O-])c2S(=O)(=O)c2ccccc2)c2cc(F)ccc2/C1=C\c1ccc(S(C)(=O)=O)cc1,viability at 50 µM,PC-3 [1],38.8%
same,viability at 50 µM,PC-3 [2],49.9%
same,viability at 50 µM,PC-3 [3],67.9%
CSc1ccc(/C=C2/C(C)=C(CC(=O)OCC(CO[N+](=O)[O-])(CO[N+](=O)[O-])CO[N+](=O)[O-])c3cc(F)ccc32)cc1,viability at 50 µM,PC-3 [1],110%
same,viability at 50 µM,PC-3 [2],101%
same,viability at 50 µM,PC-3 [3],88.3%
CC1=C(CC(=O)Oc2cccc(Oc3no[n+]([O-])c3S(=O)(=O)c3ccccc3)c2)c2cc(F)ccc2/C1=C\c1ccc([S+](C)[O-])cc1 (configuration not stated),viability at 50 µM,PC-3 [1],66.3%
same,viability at 50 µM,PC-3 [2],67.7%
same,viability at 50 µM,PC-3 [3],74%
CC1=C(CC(=O)OCCCCO)c2cc(F)ccc2/C1=C\c1ccc([S+](C)[O-])cc1 (configuration not stated),viability at 50 µM,PC-3 [1],96.5%
same,viability at 50 µM,PC-3 [2],76.9%
same,viability at 50 µM,PC-3 [3],96.6%
CC1=C(CC(=O)OCCCCO[N+](=O)[O-])c2cc(F)ccc2/C1=C\c1ccc(S(C)(=O)=O)cc1,viability at 50 µM,PC-3 [1],54.7%
same,viability at 50 µM,PC-3 [2],52.9%
same,viability at 50 µM,PC-3 [3],68.7%
CC1=C(CC(=O)/N=c2\c[n+](-c3ccccc3)[n-]o2)c2cc(F)ccc2/C1=C\c1ccc(S(C)(=O)=O)cc1,viability at 50 µM,PC-3 [1],81.1%
same,viability at 50 µM,PC-3 [2],74.5%
same,viability at 50 µM,PC-3 [3],108%
CC1=C(CC(=O)OCCOc2no[n+]([O-])c2S(=O)(=O)c2ccccc2)c2cc(F)ccc2/C1=C\c1ccc(S(C)(=O)=O)cc1,viability at 50 µM,PC-3 [1],0%
same,viability at 50 µM,PC-3 [2],0%
same,viability at 50 µM,PC-3 [3],0%
CSc1ccc(/C=C2/C(C)=C(CC(=O)Oc3cccc(Oc4no[n+]([O-])c4S(=O)(=O)c4ccccc4)c3)c3cc(F)ccc32)cc1,viability at 50 µM,PC-3 [1],80.7%
same,viability at 50 µM,PC-3 [2],88.3%
same,viability at 50 µM,PC-3 [3],81.1%
CSc1ccc(/C=C2/C(C)=C(CC(=O)OCc3cccc(Oc4no[n+]([O-])c4S(=O)(=O)c4ccccc4)c3)c3cc(F)ccc32)cc1,viability at 50 µM,PC-3 [1],82.7%
same,viability at 50 µM,PC-3 [2],79.7%
same,viability at 50 µM,PC-3 [3],102%
CSc1ccc(/C=C2/C(C)=C(CC(=O)/N=c3\c[n+](-c4ccccc4)[n-]o3)c3cc(F)ccc32)cc1,viability at 50 µM,PC-3 [1],77%
same,viability at 50 µM,PC-3 [2],90.8%
same,viability at 50 µM,PC-3 [3],89%
CC1=C(CC(=O)OCCCCCCOc2no[n+]([O-])c2S(=O)(=O)c2ccccc2)c2cc(F)ccc2/C1=C\c1ccc(S(C)(=O)=O)cc1,viability at 50 µM,PC-3 [1],15.4%
same,viability at 50 µM,PC-3 [2],24.2%
same,viability at 50 µM,PC-3 [3],42.4%
CC1=C(CC(=O)OCCCCO[N+](=O)[O-])c2cc(F)ccc2/C1=C\c1ccc([S+](C)[O-])cc1 (configuration not stated),viability at 50 µM,PC-3 [1],24.5%
same,viability at 50 µM,PC-3 [2],35.5%
same,viability at 50 µM,PC-3 [3],58.8%
CC1=C(CC(=O)OCc2cccc(Oc3no[n+]([O-])c3S(=O)(=O)c3ccccc3)c2)c2cc(F)ccc2/C1=C\c1ccc(S(C)(=O)=O)cc1,viability at 50 µM,PC-3 [1],63.6%
same,viability at 50 µM,PC-3 [2],67.7%
same,viability at 50 µM,PC-3 [3],88.3%
CC1=C(CC(=O)OCCCCO)c2cc(F)ccc2/C1=C\c1ccc(S(C)(=O)=O)cc1,viability at 50 µM,PC-3 [1],86.6%
same,viability at 50 µM,PC-3 [2],81.5%
same,viability at 50 µM,PC-3 [3],87.4%
CC1=C(CC(=O)OCCCCCCO[N+](=O)[O-])c2cc(F)ccc2/C1=C\c1ccc([S+](C)[O-])cc1 (configuration not stated),viability at 50 µM,PC-3 [1],88.1%
same,viability at 50 µM,PC-3 [2],72.7%
same,viability at 50 µM,PC-3 [3],105%
CSc1ccc(/C=C2/C(C)=C(CC(=O)OCCCCO[N+](=O)[O-])c3cc(F)ccc32)cc1,viability at 50 µM,PC-3 [1],17.1%
same,viability at 50 µM,PC-3 [2],28.4%
same,viability at 50 µM,PC-3 [3],49.4%
CC1=C(CC(=O)OCC(CO[N+](=O)[O-])(CO[N+](=O)[O-])CO[N+](=O)[O-])c2cc(F)ccc2/C1=C\c1ccc([S+](C)[O-])cc1 (configuration not stated),viability at 50 µM,PC-3 [1],89.6%
same,viability at 50 µM,PC-3 [2],79.8%
same,viability at 50 µM,PC-3 [3],86%
CSc1ccc(/C=C2/C(C)=C(CC(=O)OCCOCCOc3no[n+]([O-])c3S(=O)(=O)c3ccccc3)c3cc(F)ccc32)cc1,viability at 50 µM,PC-3 [1],50.8%
same,viability at 50 µM,PC-3 [2],71%
same,viability at 50 µM,PC-3 [3],55.2%
CC1=C(CC(=O)OCC#CCOc2no[n+]([O-])c2S(=O)(=O)c2ccccc2)c2cc(F)ccc2/C1=C\c1ccc(S(C)(=O)=O)cc1,viability at 50 µM,PC-3 [1],27.3%
same,viability at 50 µM,PC-3 [2],38%
same,viability at 50 µM,PC-3 [3],36.5%
CC1=C(CC(=O)OCCO[N+](=O)[O-])c2cc(F)ccc2/C1=C\c1ccc(S(C)(=O)=O)cc1,viability at 50 µM,PC-3 [1],84.4%
same,viability at 50 µM,PC-3 [2],96.2%
same,viability at 50 µM,PC-3 [3],84.4%
CC1=C(CC(=O)OCCO[N+](=O)[O-])c2cc(F)ccc2/C1=C\c1ccc([S+](C)[O-])cc1 (configuration not stated),viability at 50 µM,PC-3 [1],35.5%
same,viability at 50 µM,PC-3 [2],54.9%
same,viability at 50 µM,PC-3 [3],73%
CSc1ccc(/C=C2/C(C)=C(CC(=O)OCCCCO)c3cc(F)ccc32)cc1,viability at 50 µM,PC-3 [1],84%
same,viability at 50 µM,PC-3 [2],80.5%
same,viability at 50 µM,PC-3 [3],98.2%
CSc1ccc(/C=C2/C(C)=C(CC(=O)OC/C=C\COc3no[n+]([O-])c3S(=O)(=O)c3ccccc3)c3cc(F)ccc32)cc1,viability at 50 µM,PC-3 [1],20.6%
same,viability at 50 µM,PC-3 [2],31.4%
same,viability at 50 µM,PC-3 [3],30.6%
CC1=C(CC(=O)OCCOCCOc2no[n+]([O-])c2S(=O)(=O)c2ccccc2)c2cc(F)ccc2/C1=C\c1ccc(S(C)(=O)=O)cc1,viability at 50 µM,PC-3 [1],0%
same,viability at 50 µM,PC-3 [2],0%
same,viability at 50 µM,PC-3 [3],0%
CC1=C(CC(=O)OCc2cccc(Oc3no[n+]([O-])c3S(=O)(=O)c3ccccc3)c2)c2cc(F)ccc2/C1=C\c1ccc([S+](C)[O-])cc1 (configuration not stated),viability at 50 µM,PC-3 [1],51.9%
same,viability at 50 µM,PC-3 [2],56.2%
same,viability at 50 µM,PC-3 [3],71.8%
CC1=C(CC(=O)OCC(CO[N+](=O)[O-])(CO[N+](=O)[O-])CO[N+](=O)[O-])c2cc(F)ccc2/C1=C\c1ccc(S(C)(=O)=O)cc1,viability at 50 µM,PC-3 [1],95.3%
same,viability at 50 µM,PC-3 [2],84.5%
same,viability at 50 µM,PC-3 [3],101%
CSc1ccc(/C=C2/C(C)=C(CC(=O)OCCCCCCO[N+](=O)[O-])c3cc(F)ccc32)cc1,viability at 50 µM,PC-3 [1],104%
same,viability at 50 µM,PC-3 [2],85.1%
same,viability at 50 µM,PC-3 [3],92.4%
